Measured values published in patent US20130053323A1, “METHODS AND USE RELATED TO HUMANIN AND HUMANIN-LIKE PEPTIDES” (priority 2009, published 2013).
“Also recorded” adds a separate entry of the source.

Assays:
[1] = test system: fetal rat metatarsal bones; experiment: Longitudinal growth of cultured fetal rat metatarsal bones; type: cell-based
Experimental: The three middle metatarsal bone rudiments were dissected out from the paws of 20-day-old embryos (E20) (De Luca, Barnes et al. 2001). After dissection, bones were transferred to 24-well plates, one bone per well and cultured in 0.5 ml phenol-red MEM medium supplemented with 0.2% endotoxin-free fraction BSA, […] β-glycerophosphate, 0.05 mg/ml ascorbic acid and 100 μg/ml penicillin/streptomycin at 37° C. under 5% CO2 in humidified atmosphere. Medium was changed every 2-3 days. Images were captured at days 0, 2, 5, 7, 9 and 12 of culture, using a Hamamatsu C4742-95 digital camera mounted on a Nikon SMZ-U microscope. The Image-Pro plus™ (Media Cybernetics, USA) software was used to measure longitudinal growth. Metatarsal bone growth is expressed as a percentage of the length at the day of dissection (regarded as day 0). Treatment with CT (bortezomib), dexamethasone and/or HNG (S14G) was started 2-4 hours after dissection. All isolated bones were pooled and then randomly divided into the different treatment groups (4 to 6 bones per group). Each experiment was repeated at least 3 times.
The data shown in FIG. 2A indicates novel growth promoting/protective effects of humanin analog HNG (S14G) on longitudinal bone growth in cultured fetal rat metatarsal bones. […] Briefly, fetal rat metatarsal bones were pre-treated with different concentrations (mentioned in the figure) of HNG (S14G), 30 min prior to addition of Dexa. […] (n=4-6 bones/group)
CT (bortezomib) is a cytotoxic drug known to cause critical alterations in cells/tissues and disturb the cellular homeostasis. To test the effect of CT (bortezomib) on chondocytes and longitudinal bone growth, the established in vitro model of fetal rat metatarsal bones was used. These bones were collected as described in material and methods, cultured and treated with different concentrations of CT (bortezomib) under sterile conditions for up to 12 days. […] Apoptosis was analyzed in whole growth plate sections of 12-day cultured rat metatarsal bones (perichondrium excluded) by applying the TUNEL technique to detect DNA fragmentation.
In an attempt to block and prevent the negative effects on growth after CT (bortezomib)-treatment, recently discovered humanin analog HNG (S14G) was tested in vitro in fetal rat metatarsal bones.

FVB mice = experiment: Dexa-induced growth retardation in FVB mice (tibia length, nose to anus length); type: in vivo; conditions: HNG 1 μg/mice/day i.p. prior to Dexa 20 μg/mice/day; for rescue from Dexa-induced growth retardation (nose to anus length): 4 weeks
Experimental: Four weeks old female mice FVB strain were obtained from Charles-River, Germany. The mice were kept in animal facility under a 12-h light, 12-h dark schedule with water ad libitum. After an adaptation period, mice were injected with Dexa dissolved in saline (20 μg/mice) subcutaneously in the neck every day for 1 week (short-term). Whereas, HNG (S14G) dissolved in saline (1 μg/mice) was injected intraperitoneally, 45 minutes prior to Dexa injection. The vehicle group received saline only. After one week of treatment/injections, animals were sacrificed and the back legs (femur and tibia) were collected. The skin and muscle from the tibia was removed and final length of tibia was measured by using electronic digital caliper as reported previously (Zaman, Menendez-Benito et al. 2007).
In another study, four weeks old female mice FVB strain (Charles-river, Germany) were injected with Dexa dissolved in saline (20 μg/mice) subcutaneously in the neck every day for four week (long-term). Whereas, HNG (S14G) dissolved in saline (1 μg/mice) was injected intraperitoneally, 45 minutes prior to Dexa injection. The vehicle group received saline only. The total body length (nose to anus) was measured (centimeters, cm) manually (blinded, the cadges were coded on the day of measurment), every week. After 4 weeks of treatment, animals were sacrificed by inhalation of CO2, tissue samples (both left and right leg) were collected for subsequent analysis.
HNG injections were given […] prior to Dexa injections. […] After this, we next asked whether HNG (S14G) has any protective effects on bone growth after long-term treatment with Dexa (FIG. 3A). To investigate this, we treated mice for 4 weeks (group 2) with Dexa (20 μg/mice/day) and HNG (1 μg/mice/day). […] In FIG. 3B, total growth of the animals, nose to anus length (cm, manually) was analyzed in vehicle, Dexa, HNG (S14G) and Dexa/HNG (S14G) treated animals after four weeks of injections. **p<0.01 by 1-way ANOVA analyses, n=9-10/animals/group).

S14G-HN (MAPRGFSCLLLLTGEIDLPVKRRA) [HNG (S14G)]
bone growth by itself ([1]; HNG alone, 100 nM, day 12, vs control): improved bone growth by itself; also recorded: trend to promote bone growth on its own | rescue of the growth of bones ([1]; HNG in combination with 25 nM bortezomib, p<0.001): up to 50% | rescue of growth impairment ([1]; HNG with bortezomib 50 nM and above): not able to rescue the growth impairment | rescue from Dexa-induced growth retardation ([1]; different doses of HNG added 30 min prior to Dexa 1 μM): significantly rescued the bones from Dexa-induced growth retardation | rescue from Dexa-induced growth retardation (tibia length) (FVB mice; 1 week): protected mice from Dexa-induced growth retardation; also recorded: rescued mice from Dexa-induced growth retardation | rescue from Dexa-induced growth retardation (nose to anus length) (FVB mice): completely rescued mice from Dexa-induced growth retardation | rescue from Dexa-induced growth retardation (nose to anus length) (FVB mice; listed as HNG (314G)): protected mice from Dexa-induced growth retardation
